Measured values published in article PMC3261753 (Biochemistry, 2011).

Tests used:
[1] = test system: wild-type B. anthracis topoisomerase IV; assay type: biochemical, Bacillus anthracis
[2] = test system: S. pneumoniae gyrase resistance mutations; conditions: cited from earlier work
[3] = test system: S. pneumoniae topoisomerase IV resistance mutations; conditions: cited from earlier work

SMILES | Relative potency/efficacy of DNA cleavage enhancement among quinolones [1] | CC3 (concentration of drug required to triple the percent DNA cleavage observed in the absence of drug) [1] [µM] | Max. DNA cleavage [1] [%] | also measured
C[C@@H]1CN(c2c(F)c(N)c3c(=O)c(C(=O)O)cn(C4CC4)c3c2F)C[C@H](C)N1 [sparfloxacin] | least potent and efficacious quinolone examined | – | – | –
C[C@H]1COc2c(N3CCN(C)CC3)c(F)cc3c(=O)c(C(=O)O)cn1c23 [Levofloxacin, levofloxacin] | most efficacious | 1.45 | 30.4 | Drug concentration that generated maximal DNA cleavage [1]: 20 µM
Cc1c(N2CC[C@@H](CN)C2)c(F)cc2c(=O)n(N)c(=O)n(C3CC3)c12 [8-methyl-quinazoline-2,4-dione, 3-Amino-7-[(3S)-3-(aminomethyl)-1-pyrrolidinyl]-1-cyclopropyl-6-fluoro-8-methyl-2,4(1H,3H) -quinazolinedione] | – | 0.20 | 29.0 | Mg2+ concentration for half-maximal DNA cleavage [1]: ~ 0.35 mM; Mg2+ concentration for maximal DNA cleavage [1]: ~ 1 mM; Potency relative to ciprofloxacin (as reflected by the CC3 value) [1]: ~ 2.5 times
O=C(O)c1cn(C2CC2)c2cc(N3CCNCC3)c(F)cc2c1=O [Ciprofloxacin] | – | – | – | Drop in potency with mutant enzyme [2]: ~ 8 fold; Drop in potency with mutant enzyme [3]: > 16 fold
